Activity calls are given as the source filed them. The calls are words filed in the database; no cut-off is given here.
Key:
[1] = target: Stimulator of interferon genes protein (Homo sapiens) (UniProt Q86WV6); assay: Agonist activity at STING in human THP-1 cells assessed as increase in LC3 protein level by Western blotting analysis; type: cell-based
[2] = target: Stimulator of interferon genes protein (Homo sapiens) (UniProt Q86WV6); assay: Agonist activity at STING in human THP-1 cells assessed as increase in TBK1 phosphorylation by Western blotting analysis; type: cell-based
[3] = target: Stimulator of interferon genes protein (Homo sapiens) (UniProt Q86WV6); assay: Agonist activity at STING in human THP-1 cells assessed as increase in IRF3 phosphorylation by Western blotting analysis; type: cell-based
[4] = target: T1, Stimulator of interferon genes protein (Mus musculus) (UniProt Q3TBT3); assay: Agonist activity at STING in MEF cells assessed as STING translocation to golgi apparatus by measuring increase in red fluorescence incubated for 1 hr by laser scanning confocal microscope analysis; type: cell-based; details: filed as agonist
T1 sequence (whole entry): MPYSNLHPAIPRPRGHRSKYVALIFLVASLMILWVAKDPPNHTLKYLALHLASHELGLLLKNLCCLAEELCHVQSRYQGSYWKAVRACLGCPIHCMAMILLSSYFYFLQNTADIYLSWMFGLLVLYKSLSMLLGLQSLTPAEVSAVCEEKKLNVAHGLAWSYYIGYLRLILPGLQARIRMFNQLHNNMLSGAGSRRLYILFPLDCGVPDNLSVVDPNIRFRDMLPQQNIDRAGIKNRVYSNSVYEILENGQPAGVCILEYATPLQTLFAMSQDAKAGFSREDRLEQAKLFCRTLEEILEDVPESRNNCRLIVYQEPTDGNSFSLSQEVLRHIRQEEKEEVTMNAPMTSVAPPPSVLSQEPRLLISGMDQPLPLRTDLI

Human alphaherpesvirus 1 = assay: Antiviral activity against HSV-1-GFP infected in human STING-deficient WT HeLa cells assessed as reduction in viral infection by fluorescent microscopy analysis; type: functional, organism-based
[5] = target: T1, Stimulator of interferon genes protein (Mus musculus); assay: Agonist activity at STING in MEF cells assessed as STING translocation by measuring aggregation of green fluorescence incubated for 1 hr by laser scanning confocal microscope analysis; type: cell-based; details: filed as agonist
[6] = target: T1, Stimulator of interferon genes protein (Mus musculus); assay: Agonist activity at STING in MEF cells assessed as nuclear transposition of phosphorylated IRF3 incubated for 1 hr by laser scanning confocal microscope analysis; type: cell-based; details: filed as agonist
[7] = target: T1, Stimulator of interferon genes protein (Mus musculus); assay: Agonist activity at STING in MEF cells assessed as increase in STING oligomerization by Western blotting analysis; type: cell-based; details: filed as agonist

Chain of Stimulator of interferon genes protein (Homo sapiens) (Q86WV6 whole entry): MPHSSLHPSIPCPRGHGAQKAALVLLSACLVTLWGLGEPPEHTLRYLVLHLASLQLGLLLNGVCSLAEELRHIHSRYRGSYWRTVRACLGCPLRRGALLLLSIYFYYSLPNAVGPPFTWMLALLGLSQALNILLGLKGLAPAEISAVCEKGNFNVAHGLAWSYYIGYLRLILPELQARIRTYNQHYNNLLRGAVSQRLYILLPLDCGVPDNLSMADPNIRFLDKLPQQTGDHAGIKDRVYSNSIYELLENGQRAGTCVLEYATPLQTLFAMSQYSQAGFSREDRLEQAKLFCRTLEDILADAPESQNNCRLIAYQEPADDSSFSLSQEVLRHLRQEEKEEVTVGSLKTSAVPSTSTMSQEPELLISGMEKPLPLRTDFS

Row | Activity [1] | Activity [2] | Activity [3] | SMILES | Activity [4] | Activity (Human alphaherpesvirus 1) | Activity [5] | Activity [6] | Activity [7]
1 | inactive | inactive | inactive | CC(NC(=O)CC(c1ccccc1)c1ccccc1)c1ccccc1 (centres undefined) | – | – | – | – | –
2 | inactive | inactive | inactive | C[C@@H](NCCC(c1ccccc1)c1ccccc1)c1ccccc1 | – | – | – | – | –
3 | inactive | inactive | inactive | C[C@H](NCCC(c1ccccc1)c1ccccc1)c1ccccc1 | – | – | – | – | –
4 | – | – | – | Nc1nc2c(ncn2[C@@H]2O[C@@H]3COP(=O)(O)O[C@H]4[C@@H](O)[C@H](n5cnc6c(N)ncnc65)O[C@@H]4COP(=O)(O)O[C@@H]2[C@@H]3O)c(=O)[nH]1 | Active | inactive | Active | Active | Active

Reference: ChEMBL document CHEMBL5518165, “M335, a novel small-molecule STING agonist activates the immune response and exerts antitumor effects” (Eur J Med Chem, 2024)
